Turning to `CCCCc1nc2nn(C)cc2c2nc(-c3ccc(C)cc3)nn12` [Example 121, 5-n-butyl-8-methyl-2-(4-methylphenyl)pyrazolo[4,3-e]-1,2,4-triazolo[1,5-c]pyrimidine], the melting point – broadly, the temperature of the solid-liquid transition – was 180 to 181 °C.

`CCCCc1nc2c(cnn2CCC)c2nc(-c3ccc(C)cc3)nn12` [Example 122, 5-n-butyl-2-(4-methylphenyl)-7-n-propylpyrazolo[4,3-e]-1,2,4-triazolo[1,5-c]pyrimidine] returned a melting point of 113 to 113.5 °C.

`CCCCc1nc2nn(CCC)cc2c2nc(-c3ccc(C)cc3)nn12` [Example 123, 5-n-butyl-2-(4-methylphenyl)-8-n-propylpyrazolo[4,3-e]-1,2,4-triazolo[1,5-c]pyrimidine] came in with a melting point of 101.5 to 103.5 °C. To `CCCCc1nc2c(cnn2CCC)c2nc(-c3ccc(F)cc3)nn12` [Example 124, 5-n-butyl-2-(4-fluorophenyl)-7-n-propylpyrazolo[4,3-e]-1,2,4-triazolo[1,5-c]pyrimidine] belongs 105.5 to 106 °C.

With `CCCCc1nc2nn(CCC)cc2c2nc(-c3ccc(F)cc3)nn12` [Example 125, 5-n-butyl-2-(4-fluorophenyl)-8-n-propylpyrazolo[4,3-e]-1,2,4-triazolo[1,5-c]pyrimidine], the melting point was 106.5 to 107.5 °C.

On to `CCCCc1nc2c(cnn2CCC)c2nc(-c3ccc(Cl)cc3)nn12` [Example 126, 5-n-butyl-2-(4-chlorophenyl)-7-n-propylpyrazolo[4,3-e]-1,2,4-triazolo[1,5-c]pyrimidine], for which the melting point was 131.5 to 132 °C. The same measure for `CCCCc1nc2nn(CCC)cc2c2nc(-c3ccc(Cl)cc3)nn12` [Example 127, 5-n-butyl-2-(4-chlorophenyl)-8-n-propylpyrazolo[4,3-e]-1,2,4-triazolo[1,5-c]pyrimidine]: 137 to 138 °C; for `CCCCc1nc2c(cnn2CC(=O)OCC)c2nc(-c3ccccc3)nn12` [Example 128, ethyl 2-(5-n-butyl-2-phenylpyrazolo[4,3-e]-1,2,4-triazolo[1,5-c]pyrimidin-7-yl)acetate]: 131.5 to 132.5 °C; for `CCCCc1nc2nn(CC(=O)OCC)cc2c2nc(-c3ccccc3)nn12` [Example 129, ethyl 2-(5-n-butyl-2-phenylpyrazolo[4,3-e]-1,2,4-triazolo[1,5-c]pyrimidin-8-yl)acetate]: 136 to 137 °C.

Compound `CCCCc1nc2c(cnn2CC(=O)OCC)c2nc(-c3ccc(F)cc3)nn12` [Example 130, ethyl 2-[5-n-butyl-2-(4-fluorophenyl)pyrazolo[4,3-e]-1,2,4-triazolo[1,5-c]pyrimidin-7-yl]acetate] registered a melting point of 139.5 to 140.5 °C. To `CCCCc1nc2nn(CC(=O)OCC)cc2c2nc(-c3ccc(F)cc3)nn12` [Example 131, ethyl 2-[5-n-butyl-2-(4-fluorophenyl)pyrazolo[4,3-e]-1,2,4-triazolo[1,5-c]pyrimidin-8-yl]acetate] belongs 164 to 165 °C; to `CCCCc1nc2c(cnn2CCO)c2nc(-c3ccccc3)nn12` [Example 132, 5-n-butyl-7-(2-hydroxyethyl)-2-phenylpyrazolo[4,3-e]-1,2,4-triazolo[1,5-c]pyrimidine], 132 to 133 °C.

On to `CCCCc1nc2nn(CCO)cc2c2nc(-c3ccccc3)nn12` [Example 133, 5-n-butyl-8-(2-hydroxyethyl)-2-phenylpyrazolo[4,3-e]-1,2,4-triazolo[1,5-c]pyrimidine], for which the melting point is 160.5 to 162 °C. To `CCCCc1nc2c(cnn2CCO)c2nc(-c3ccc(F)cc3)nn12` [Example 134, 5-n-butyl-2-(4-fluorophenyl)-7-(2-hydroxyethyl)pyrazolo[4,3-e]-1,2,4-triazolo[1,5-c]pyrimidine] belongs 150.5 to 151.5 °C; to `CCCCc1nc2nn(CCO)cc2c2nc(-c3ccc(F)cc3)nn12` [Example 135, 5-n-butyl-2-(4-fluorophenyl)-8-(2-hydroxyethyl)pyrazolo[4,3-e]-1,2,4-triazolo[1,5-c]pyrimidine], 202 to 203 °C. The same measure for `CCCCc1nc2c(cnn2CCO)c2nc(-c3ccc(C)cc3)nn12` [Example 136, 5-n-butyl-7-(2-hydroxyethyl)-2-(4-methylphenyl)pyrazolo[4,3-e]-1,2,4-triazolo[1,5-c]pyrimidine]: 134 to 136 °C; for `CCCCc1nc2nn(CCO)cc2c2nc(-c3ccc(C)cc3)nn12` [Example 137, 5-n-butyl-8-(2-hydroxyethyl)-2-(4-methylphenyl)pyrazolo[4,3-e]-1,2,4-triazolo[1,5-c]pyrimidine]: 171 to 173 °C; for `CCCCc1nc2c(cnn2CCO)c2nc(-c3ccc(Cl)cc3)nn12` [Example 138, 5-n-butyl-2-(4-chlorophenyl)-7-(2-hydroxyethyl)pyrazolo[4,3-e]-1,2,4-triazolo[1,5-c]pyrimidine]: 164 to 164.5 °C. The same measure for `CCCCc1nc2nn(CCO)cc2c2nc(-c3ccc(Cl)cc3)nn12` [Example 139, 5-n-butyl-2-(4-chlorophenyl)-8-(2-hydroxyethyl)pyrazolo[4,3-e]-1,2,4-triazolo[1,5-c]pyrimidine]: 189 to 190.5 °C; for `CCCCc1nc2c(cnn2CCO)c2nc(-c3ccc(OC)cc3)nn12` [Example 140, 5-n-butyl-7-(2-hydroxyethyl)-2-(4-methoxyphenyl)pyrazolo[4,3-e]-1,2,4-triazolo[1,5-c]pyrimidine]: 147.5 to 148.5 °C.

The compound `CCCCc1nc2nn(CCO)cc2c2nc(-c3ccc(OC)cc3)nn12` [Example 141, 5-n-butyl-8-(2-hydroxyethyl)-2-(4-methoxyphenyl)pyrazolo[4,3-e]-1,2,4-triazolo[1,5-c]pyrimidine] showed a melting point of 178 to 179 °C.

Compound `CCCCc1nc2nn(CC)cc2c2nc(-c3ccc(OC)cc3)nn12` [Example 142, 5-n-butyl-8-ethyl-2-(4-methoxyphenyl)pyrazolo[4,3-e]-1,2,4-triazolo[1,5-c]pyrimidine] had a melting point of 127 to 128 °C. To `CCCCc1nc2nn(CC)cc2c2nc(-c3ccc(C)cc3)nn12` [Example 143, 5-n-butyl-8-ethyl-2-(4-methylphenyl)pyrazolo[4,3-e]-1,2,4-triazolo[1,5-c]pyrimidine] belongs 128 to 129 °C; to `CCCCc1nc2nn(CC)cc2c2nc(-c3ccc(F)cc3)nn12` [Example 144, 5-n-butyl-8-ethyl-2-(4-fluorophenyl)pyrazolo[4,3-e]-1,2,4-triazolo[1,5-c]pyrimidine], 146 to 147 °C. To `CCCCc1nc2nn(CC)cc2c2nc(-c3ccc(Cl)cc3)nn12` [Example 145, 5-n-butyl-2-(4-chlorophenyl)-8-ethylpyrazolo[4,3-e]-1,2,4-triazolo[1,5-c]pyrimidine] belongs 141 to 142 °C. The same measure for `CCCCc1nc2nn(CCC)cc2c2nc(-c3ccc(OC)cc3)nn12` [Example 146, 5-n-butyl-2-(4-methoxyphenyl)-8-n-propylpyrazolo[4,3-e]-1,2,4-triazolo[1,5-c]pyrimidine]: 112 to 112.5 °C. Compound `COc1ccc(-c2nc3c4cnnc-4nc(CCCC(=O)O)n3[nH]2)cc1` [Example 148, 4-[2-(4-methoxyphenyl)pyrazolo[4,3-e]-1,2,4-triazolo[1,5-c]pyrimidin-5-yl]butyric acid] showed a melting point of 247.5 to 249 °C.

For the compound `O=C(O)CCCc1nc2nncc-2c2nc(-c3ccc(Cl)cc3)[nH]n12` [Example 149, 4-[2-(4-chlorophenyl)pyrazolo[4,3-e]-1,2,4-triazolo[1,5-c]pyrimidin-5-yl]butyric acid], the melting point lay in the range of 253.5 to 255.5 °C.

Consider `Cc1ccc(-c2nc3c4cnnc-4nc(CCCC(=O)O)n3[nH]2)cc1` [Example 150, 4-[2-(4-methylphenyl)pyrazolo[4,3-e]-1,2,4-triazolo[1,5-c]pyrimidin-5-yl]butyric acid], for which the melting point was 249 to 251 °C. In turn, `CCCCc1nc2c(cnn2CC(=O)O)c2nc(-c3ccccc3)nn12` [Example 151, 2-(5-n-butyl-2-phenylpyrazolo[4,3-e]-1,2,4-triazolo[1,5-c]pyrimidin-7-yl)acetic acid] showed a melting point of 271 to 272.5 °C. The same measure for `CCCCc1nc2nn(CC(=O)O)cc2c2nc(-c3ccccc3)nn12` [Example 152, 2-(5-n-butyl-2-phenylpyrazolo[4,3-e]-1,2,4-triazolo[1,5-c]pyrimidin-8-yl)acetic acid]: > 281 °C (dec.). The same measure for `O=C(O)CCCc1nc2ccccc2c2nc(-c3ccccc3)nn12` [Example 153, 4-(2-phenyl-1,2,4-triazolo[1,5-c]quinazolin-5-yl)butyric acid]: 211 to 211.5 °C; for `O=C(O)CCCc1nc2ccccc2c2nc(-c3ccc(Br)cc3)nn12` [Example 154, 4-[2-(4-bromophenyl)-1,2,4-triazolo[1,5-c]quinazolin-5-yl]butyric acid]: 219 to 220 °C; for `O=C(O)CCCc1nc2ccccc2c2nc(-c3ccc(F)cc3)nn12` [Example 155, 4-[2-(4-fluorophenyl)-1,2,4-triazolo[1,5-c]quinazolin-5-yl]butyric acid]: 225 to 226 °C. `O=C(O)CCCc1nc2ccccc2c2nc(-c3ccc(Cl)cc3)nn12` [Example 156, 4-[2-(4-chlorophenyl)-1,2,4-triazolo[1,5-c]quinazolin-5-yl]butyric acid]: the melting point lay within 227 to 228 °C. As for `CCCCCc1nc2ccccc2c2nc(-c3ccc(O)cc3)nn12` [Example 157, 2-(4-hydroxyphenyl)-5-n-pentyl-1,2,4-triazolo[1,5-c]quinazoline], the melting point lay within 214 to 215 °C.

The values above are taken from US20040142952A1, “Triazoloquinazoline and pyrazolotriazolopyrimidine derivatives, medicinal compositions, adenosine a3 receptor affinity agents, ocular tension lowering agents, preparations for preventing and treating glaucoma and method of lowering ocular tension” (priority 2001, published 2004).
